Assay results as given in patent publication US9073858B2, “Methods of targeted drug development” (priority 2010, dated 2015).
Entries after “also recorded” stand apart in the source; their conditions may differ. Read-outs that look alike come from different tables or passages of the source.

What was measured:
[1] = Stability on incubation with human liver microsomes (HLM); type: in vitro ADME; details: percentage left after incubation with human liver microsomes for 30 minutes
Procedure: (§1) Stability of hydroxyquinoline analogs were determined (see e.g., TABLE 18). MLM represents the percentage left after incubation with mouse liver microsomes for 30 minutes. HLM represents the percentage left after incubation with human liver microsomes for 30 minutes.
(§2) Stability of analogs having a benzaldehyde derived ring were determined (see e.g., TABLE 18). MLM represents the percentage left after incubation with mouse liver microsomes for 30 minutes. HLM represents the percentage left after incubation with human liver microsomes for 30 minutes.

[2] = test system: H1975 cells; experiment: H1975 Cell Proliferation Assay (MTT); type: cell-based; details: read-out: IC50 Value (μM) H1975 Cells
Procedure: (§3) Cell proliferation is determined using the MTT assay. The MTT cell proliferation assay is a colorimetric assay system which measures the reduction of a tetrazolium component (MTT) into an insoluble formazan product by the mitochondria of viable cells. After incubation of the cells with the MTT reagent, DMSO is added to solubilize the colored crystals and the samples read at a wavelength of 560 nm. The amount of color produced is directly proportional to the number of viable cells.
(§4) 3-(4,5-Dimethylthiazol-2-yl)-2,5-diphenyltetrazolium Bromide (MTT) dye (Aesar, cat no. L11939) was prepared at 5 mg/ml in PBS. To each well, 20 μl of MTT solution was added to existing media and mixed thoroughly with 5 mins of gentle shaking at room temperature. Plates were incubated at 37° C., 5% CO2 for approximately 2 hrs. After 2-3 hrs incubation, media was aspirated out and plates were patted dry. […] Plates were incubated at 37° C., 5% CO2 for 10 min and mix thoroughly with 5 mins of gentle shaking at room temperature. Plates were read on the PolarStar plate reader at 560 nm. Percent (%) inhibition was calculated as 100%−(OD560 nm experimental-blank)×100%/OD560 nm control-blank. Blank=wells+serum free media+0.5% DMSO. Experimental=wells+cells+treatment+0.5% DMSO. Control=wells+cells+0.5% DMSO. IC50 values were calculated in GraphPad Prism using non-linear regression curve fitting. All statistical analyses was done either in GraphPad Prism or Microsoft Excel.
Briefly, compounds are added to cells plated in 96-well plates. The cells are allowed to grow for 72 hours before MTT treatment. The effect of the compounds on cell proliferation is analyzed using GraphPad Prism.

[3] = Stability on incubation with mouse liver microsomes (MLM); type: in vitro ADME; details: for stability toward liver microsome incubation: mouse and human liver microsomes (MLM, HLM); for MLM % Remaining@ 30 Min: percentage left after incubation with mouse liver microsomes for 30 minutes
Procedure: as §1, §2

[4] = test system: HT-29 cells; experiment: HT-29 Cell Proliferation Assay (MTT); type: cell-based; details: read-out: IC50 Value (μM) HT-29 Cells
Procedure: as §3, §4
Briefly, compounds are added to cells plated in 96-well plates. […] The effect of the compounds on cell proliferation is analyzed using GraphPad Prism.
HT-29 cells are a colon cancer cell line that is utilized to assess the ability of compounds to inhibit the proliferation of cells in tumors of the colon.
For the HT-29 cell proliferation assay, on day 1, HT-29 cells are seeded at 3,000 cells/well in 100 μl media containing 10% FBS, 1× Pen-Strep, and 1× L-Glutamine in 96 well, tissue culture-treated plates. […] Working solutions of compounds were prepared (at […] in 100% DMSO). To 200 μl media, 20 μl of a 5× compound (diluted in plain media) was added for a final DMSO concentration of 0.5%. […] On day 5, plates were analyzed for cell growth using the MTT assay.

[5] = test system: A549 cells; experiment: A549 Cell Proliferation Assay (MTT); type: cell-based
Procedure: Cell proliferation is determined using the MTT assay. The MTT cell proliferation assay is a colorimetric assay system which measures the reduction of a tetrazolium component (MTT) into an insoluble formazan product by the mitochondria of viable cells. After incubation of the cells with the MTT reagent, DMSO is added to solubilize the colored crystals and the samples read at a wavelength of 560 nm. The amount of color produced is directly proportional to the number of viable cells. […] L11939) was prepared at 5 mg/ml in PBS. […] Plates were read on the PolarStar plate reader at 560 nm. […] IC50 values were calculated in GraphPad Prism using non-linear regression curve fitting. All statistical analyses was done either in GraphPad Prism or Microsoft Excel. […] Briefly, compounds are added to cells plated in 96-well plates. The cells are allowed to grow for 72 hours before MTT treatment. The effect of the compounds on cell proliferation is analyzed using GraphPad Prism. A549 cells are a non-small cell lung cancer cell line that have wild type EGFR and p53 but have point mutations in KRAS gene which transform it into an oncogene. […] SH30071.03, lot no. ATB31500), 1% Pen Strep (Gibco, cat no. […] On day 2, working solutions of compounds at 200× were prepared. […] Plates were incubated for 72 hours before analyzing them with MTT (as described above).

[6] = Homo sapiens, A549, 72 h, read-out: IC50 Value (μM) A549 Cells
[7] = Homo sapiens, A549, read-out: IC50, cell proliferation in A549 or H1975 cells
[8] = Homo sapiens, NCI-H1975, MTT, 72 hours

Compound	HLM % Remaining@ 30 Min [1] [%]	IC50 ([2]; Homo sapiens, NCI-H1975, 72 h) [µM]	MLM % Remaining@ 30 Min [3] [%]	IC50 ([4]; Homo sapiens, HT-29, 72 h) [µM]	IC50 [5, 6] [µM]	also measured
Cc1cc(Cl)cnc1NC(c1ccc(C(F)(F)F)cc1)c1ccc2cccnc2c1O (stereo not shown) [AD4-13041]	100	0.17	81	1.1	0.11	stability toward liver microsome incubation [3]: increased stability
Cc1cc(Cl)cnc1NC(c1ccc(C(F)(F)F)cc1F)c1ccc2cccnc2c1O (stereo not shown) [AD4-13042]	101	0.13	99	1.3	0.11	stability toward liver microsome incubation [3]: increased stability
Oc1c(C(Nc2ccc(Cl)cn2)c2cccc(Cl)c2Cl)ccc2cccnc12 (stereo not shown) [AD4-13086]	72	0.15	37	1.2	0.16	–
Oc1c(C(Nc2ccc(Cl)cn2)c2cc(Cl)ccc2Cl)ccc2cccnc12 (stereo not shown) [AD4-13095]	88	0.44	60	5.4	0.11	–
Cc1cc(NC(c2ccc(Cl)c(C(F)(F)F)c2)c2ccc3cccnc3c2O)ncc1Cl (stereo not shown) [AD4-13108]	93	0.3	25	3.3	0.14	–
Oc1c(C(Nc2ccc(F)cn2)c2cc(Cl)cc(Cl)c2Cl)ccc2cccnc12 (stereo not shown) [AD4-13111]	92	0.37	87	–	0.14	IC50 [4]: 8.9 µM
Cc1cc(Cl)cnc1NC(c1cc(Cl)cc(Cl)c1)c1ccc2cccnc2c1O (stereo not shown) [AD4-13131]	100	0.1	83	0.92	0.1	IC50 [5, 7]: ≤ 0.1 µM
Oc1c(C(Nc2ccc(F)cn2)c2cc(Cl)cc(Cl)c2Cl)ccc2cccnc12 (stereo not shown) [AD4-13132]	98	–	66	–	–	IC50 [2]: 0.31 µM; IC50 [4]: 1.6 µM; IC50 ([5]; read-out: IC50 Value (μM) A549 Cells): 0.17 µM
Cc1cc(Cl)cnc1NC(c1ccc2cccnc2c1O)c1c(Cl)cccc1Cl (stereo not shown) [AD4-13142]	–	0.95	–	3.1	0.14	–
Oc1c(C(Nc2ncc(Cl)cc2F)c2ccc(Cl)cc2Cl)ccc2cccnc12 (stereo not shown) [AD4-13143]	96	0.13	76	1.1	0.13	–
Oc1c(C(Nc2ncc(Cl)cc2F)c2cccc(C(F)(F)F)c2)ccc2cccnc12 (stereo not shown) [AD4-13145]	–	1.7	–	2.1	0.16	–
Oc1c(C(Nc2ncc(F)cc2F)c2ccc(F)cc2Cl)ccc2cccnc12 (stereo not shown) [AD4-13146]	–	0.24	–	2	0.14	–
Cc1cc(NC(c2ccc3cccnc3c2O)c2c(Cl)cccc2Cl)ncc1Cl (stereo not shown) [AD4-13148]	–	0.31	–	1.1	0.13	–
Oc1c(C(Nc2ncc(Cl)cc2F)c2ccc(Cl)c(Cl)c2)ccc2cccnc12 (stereo not shown) [AD4-13150]	100	0.45	85	1.9	0.14	–
Cc1cc(NC(c2cccc(Cl)c2Cl)c2ccc3cccnc3c2O)ncc1Cl (stereo not shown) [AD4-13153]	96	0.19	62	0.79	0.19	–
Cc1cc(Cl)cnc1NC(c1ccc(Cl)cc1)c1ccc2cccnc2c1O (stereo not shown) [AD4-13154]	–	0.15	–	0.76	0.17	–

Compound	HLM % Remaining@ 30 Min [1] [%]	IC50 ([2]; Homo sapiens, NCI-H1975, 72 h) [µM]	MLM % Remaining@ 30 Min [3] [%]	IC50 ([4]; Homo sapiens, HT-29, 72 h) [µM]	IC50 [5, 6] [µM]	also measured
Cc1cc(Cl)cnc1NC(c1cccc(Cl)c1)c1ccc2cccnc2c1O (stereo not shown) [AD4-13159]	–	0.13	–	1.2	0.11	–
Cc1cc(Cl)cnc1NC(c1cc(Cl)cc(Cl)c1Cl)c1ccc2cccnc2c1O (stereo not shown) [AD4-13167]	–	0.31	–	1.5	0.1	–
Oc1c(C(Nc2cc(Cl)c(Cl)cn2)c2cccc(Cl)c2Cl)ccc2cccnc12 (stereo not shown) [AD4-13172]	100	0.15	80	1.3	0.14	–
Oc1c(C(Nc2ncc(F)cc2F)c2ccc(Cl)cc2Cl)ccc2cccnc12 (stereo not shown) [AD4-13175]	–	3.8	–	2	0.17	–
Oc1c(C(Nc2cc(Cl)c(Cl)cn2)c2ccc(Cl)c(Cl)c2)ccc2cccnc12 (stereo not shown) [AD4-13177]	86	0.27	86	1.5	0.14	–
Oc1c(C(Nc2cc(Cl)c(Cl)cn2)c2cc(Cl)cc(Cl)c2Cl)ccc2cccnc12 (stereo not shown) [AD4-13180]	–	0.86	–	1.7	0.1	–
Oc1c(C(Nc2ncc(F)cc2F)c2ccc(Cl)c(Cl)c2)ccc2cccnc12 (stereo not shown) [AD4-13182]	–	1.8	–	8.3	0.19	–
Oc1c(C(Nc2cc(Cl)c(Cl)cn2)c2ccc(Cl)c(C(F)(F)F)c2)ccc2cccnc12 (stereo not shown) [AD4-13184]	–	0.24	–	2.2	0.11	–
Oc1c(C(Nc2cc(Cl)c(Cl)cn2)c2ccc(Cl)cc2)ccc2cccnc12 (stereo not shown) [AD4-13187]	–	0.26	–	1.3	0.15	–
Oc1c(C(Nc2cc(Cl)c(Cl)cn2)c2cccc(Cl)c2)ccc2cccnc12 (stereo not shown) [AD4-13188]	–	0.28	–	0.86	0.14	–
Cc1cc(Cl)ccc1NC(c1ccc(Cl)c(Cl)c1)c1ccc2cccnc2c1O (stereo not shown) [AD4-13204]	–	–	–	–	–	IC50 [2, 8]: 1.4 µM; IC50 ([4]; Homo sapiens, HT-29, MTT, 72 hrs): 4.5 µM; IC50 ([5]; Homo sapiens, A549, MTT, 72 hours, read-out: IC50 Value (μM) A549 Cells): 0.19 µM
Cc1nc(NC(c2ccc(Cl)cc2Cl)c2ccc3cccnc3c2O)c(Cl)cc1Cl (stereo not shown) [AD4-13206]	99	0.36	93	2.1	0.074	stability toward liver microsome incubation [3]: increased stability; also recorded: good stability; IC50 [5, 7]: ≤ 0.1 µM
Cc1nc(NC(c2cc(Cl)cc(Cl)c2Cl)c2ccc3cccnc3c2O)ccc1Cl (stereo not shown) [AD4-13209]	–	0.14	–	2.3	0.17	–
Cc1nc(NC(c2cccc(Cl)c2Cl)c2ccc3cccnc3c2O)c(Cl)cc1Cl (stereo not shown) [AD4-13211]	–	0.16	–	2	0.082	IC50 [5, 7]: ≤ 0.1 µM
Cc1cc(Cl)cnc1NC(c1ccc(Cl)cc1Cl)c1cc(Cl)c2cccnc2c1O (stereo not shown) [AD4-13212]	–	–	–	3.5	0.13	IC50 [2, 8]: 0.16 µM
